The values below are quoted from earlier work in patent publication US20190216738A1, “PIRFENIDONE-CONTAINING TABLET AND CAPSULE FORMULATION” (Laurus Labs Ltd, priority 2018, published 2019).

Each structure is given as a SMILES string.

In the case of `Cc1ccc(=O)n(-c2ccccc2)c1` [Pirfenidone], for the setting “1.0 N HCl, water and 1.0 N NaOH”, the solubility result is “sparingly soluble”. Further, the “dissolution in water (solubility)” value (water, 25° C., pH independent) is 19 mg/mL.
